These results are taken from patent publication US20070203225A1, “METHOD OF INCREASING ENDOGENOUS ADIPONECTIN PRODUCTION AND LEPTIN PRODUCTION” (priority 2001, published 2007).

Entries after “also recorded” stand apart in the source; their conditions may differ.

Holding throughout (assay type): cell-based
For experiment [1], the system named is isolated rat adipocytes. The experiment can be described thus: Incorporation of glucose carbon into triglyceride in cultured adipocytes. The method, then:
Incorporation of Glucose Carbon into Triglyceride: To measure glucose incorporation into triglyceride, cultures are exposed to media containing 0.01 uCi/ml of ^14C-glucose. After 96 hr, media and extracellular lipid is removed from the well and methanol added. Then scrape the collagen-cell matrix from the well and transfer into a 50 ml glass tube. Rinse the well and scrape again in methanol to assure complete transfer of cells. Total triglycerides will be extracted using the Folch method (Folch, 1957). An aliquot of the lipid extract will be placed into vials containing scintillation fluid then radioactivity will be measured.
The first measurement is used to calculate the amount of glucose incorporated into triglycerides. Another aliquot of the lipid extract is placed into pre-weighed aluminum pans to determine the total amount of triglyceride per well. The remaining lipid is saponified and acidified to separate the glycerol and fatty acids. An aliquot of the lipid extract is placed into vials containing scintillation fluid and counted. This second count represents the ^14C-glucose incorporation into fatty acids. By subtraction, the amount that was incorporated into triglyceride though glycerol is also determined. Glucose incorporation into triglyceride and into the fatty acid portion of the triglyceride are calculated by multiplying disintegration per min by total ug of glucose/well over the total DPM/well.

The test system of experiment [2] is isolated rat adipocytes. Nature of the experiment: Glucose oxidation: incorporation of 14C-glucose into CO2 by isolated rat adipocytes. The method, then:
Substrate Oxidation: Oxidation is measured using a modification of the method of Rodbell (Rodbell, 1964) and a modification of the cell culture system described by Bottcher and Furst (Bottcher, 1996). Briefly, adipocytes are isolated, counted and sized as previously described. Adipocytes are plated as described except they are placed in a sterile 20 ml scintillation vial instead of a well. Two ml of treatment media containing [U-^14C]-substrate (0.3 uCi/ml; glucose, fatty acids, malate, fumarate, pyruvate) is added to the vials. The vials are filled with 95% O2-5% CO2 gas and capped with rubber stoppers fitted with a hanging center well. Each well contains a 2×8 cm strip of Whatman No. 1 paper. Vials are maintained at 37° C. for 48 hr. After 48 hr, a sample of media is removed from each vial using a 4 inch, 23 gauge needle. Using another syringe and 23 gauge needle, 200 ul of sodium benzethonium is placed onto the paper strip and hanging well to capture CO2. Concentrated sulfuric acid is added to the vial in order to lyse cells and liberate all CO2 from the collagen matrix. After 24 hours, the hanging well and paper are transferred to another vial containing scintillation fluid and counted. The data are expressed as % DPM recovered as CO2 of the total DPM remaining in the media at 48 hours and as micromoles of substrate oxidized over time.

The test system of experiment [3] is cultured rat adipocytes. The experiment can be described thus: Adiponectin secretion by isolated cultured rat adipocytes over 96 h. The method, then: Several studies have reported that thiazolidenediones (TZDs), agonists of PPARγ, increase adiponectin expression and circulating levels in animals (Maeda, 2001; Yamauchi, 2001a; Ye, 2003). TZD (10 μM Troglitazone) stimulated of adiponectin secretion from cultured rat adipocytes from 3 different depots (n=6). Mesenteric fat produced the largest amount of adiponectin over 96 hours in culture. (FIG. 5A). Adiponectin secretion from both the control- and TZD-treated adipocytes was well correlated with the glucose utilization (control, r=0.79; p<0.001); (TZD-treated, r=0.84, p=<0.0001, FIG. 5B) showing that, similar to leptin production, glucose metabolism also is involved in the regulation of adiponectin production by adipocytes.
Insulin increased adiponectin production from 3 different fat depots, however as in the experiments with troglitazone, the mesenteric depot produced the most adiponectin (FIG. 6B). Like leptin, both basal and insulin-stimulated adiponectin secretion was highly correlated to glucose utilization (r=0.91, p<0.0001) (FIG. 6C), and inversely related to the proportion of glucose metabolized to lactate (r=−0.81, p<0.0001) (FIG. 6D).
Also paralleling the regulation of leptin, adiponectin secretion by isolated cultured adipocytes was increased during 96 h culture by inhibitors of PDH-K. DTNB (100 μM) increased adiponectin secretion by 40% (p<0.03, n=6, FIG. 7A). DCA (2 mM) increased adiponectin secretion by 23% (p<0.025, n=6, FIG. 7B). The increase in adiponectin induced by DTNB was highly correlated with glucose utilization (r=0.95, p<0.004). Furthermore in adipocytes transfected with antisense directed at PDH-K, adiponectin secretion was stimulated by 24.3±8.4%, p<0.05, n=7, FIG. 7C).
Cell isolation/preparation: Adipocytes are prepared from epididymal fat pads from male Sprague-Dawley rats weighing 300-600 g. Epididymal fat depots are resected from halothane anesthetized rats under aseptic conditions and adipocytes are isolated by collagenase digestion by the Rodbell method (Rodbell M. Metabolism of isolated fat cells. I. Effects of hormones on glucose metabolism and lipolysis. J Biol Chem. 1964; 239: 375-380), with minor modifications as previously described (Mueller W M, Gregoire F M, Stanhope K L, Mobbs C V, Mizuno T M, Warden C H, Stem J S, Havel P J. Evidence that glucose metabolism regulates leptin secretion from isolated adipocytes. Endocrinology 139: 551-558, 1998; Mueller W M, Stanhope K L, Gregoire F, Evans J L, Havel P J. Effects of metformin and vanadium on leptin secretion from cultured rat adipocytes. Obesity Res. 8: 530-539, 2000; Medina E A, Stanhope K L, Mizuno T M, Mobbs C V, Gregoire F, Hubbard N E, Erickson K L, Havel P J. Effects of tumor necrosis factor alpha on leptin secretion and gene expression: relationship to changes of glucose metabolism in isolated rat adipocytes. Int J Obes Relat Metab Disord. 23: 896-903, 1999.). The isolated adipocytes are then incubated for 30 minutes at 37 C before being plated and cultured on Matrigel-coated plates.
Adipocyte Culture: Adipocytes are maintained in culture anchored to a basement membrane matrix (Matrigel, Becton Dickinson, Franklin Lakes, N.J.) or collagen from Cohesion Technologies, (Palo Alto, Calif.). […]

`O=C(O)c1cc(SSc2ccc([N+](=O)[O-])c(C(=O)O)c2)ccc1[N+](=O)[O-]` [DTNB, 5,5′-Dithiobis(2-nitrobenzoate)]: the “effect on proportion of glucose incorporated into TG (in words)” value in experiment [1] (DTNB 100 μM, NEM 0.1 μM, DCA 2 mM) is listed as “without affecting”. For the same compound, the “effect on absolute and proportional glucose oxidation, labeled glucose into CO2 (in words)” value in experiment [2] (DTNB (50 μM in FIG. 20) and DCA (2 mM), percent of control) is listed as “increase”. In addition, in experiment [3] (DTNB 100 μM, DCA 2 mM, 96 h culture, n=6), the “increase of adiponectin secretion” value was 40%. The “effect on adiponectin secretion (in words)” value in experiment [3] (PDH kinase inhibitors DTNB and DCA) is “increase”.

Take insulin: the “effect on proportional incorporation of glucose into triglyceride (in words)” value in experiment [1] (insulin 0.16 to 1.6 nM, listed as Insulin) is “does not affect; also recorded: does not alter”. In experiment [2] (insulin 1.6 nM), the “increase of proportional oxidation of glucose” value is on record as 43.6±10.6%. For the same compound, in experiment [2] (insulin 1.6 nM, n=18), the “effect on amount of glucose oxidized to CO2 (in words)” value is “doubles; also recorded: markedly increases”. Besides, the “adiponectin secretion, 96 hr total” value in experiment [3] (1.6 nM insulin, control 179.9±35.3 ng, n=6) is 312.3 ± 44 ng. The “effect on adiponectin secretion (in words)” value in experiment [3] (insulin (1.6 nM), 96 hour culture) is listed as “significant increase; also recorded: increases”.
